Patent US20240190865A1, “T-TYPE CALCIUM CHANNEL ANTAGONISTS AND USES THEREOF” (THE BOARD OF TRUSTEES OF THE LELAND STANFORD JUNIOR …, priority 2021, published 2024)
“Also recorded” adds a separate entry of the source. Where two headings read alike, the source gives them in different places.

How the values were obtained:
[1] = system: Miro1; experiment: Rescue of Miro1 deficit in P301L tau donor fibroblasts (FCCP challenge, Miro1 immunocytochemistry); format: cell-based, human
Description: The compound of Example 15 rescued Miro1 deficit in P301L tau donor at risk for developing frontotemporal dementia (FTD). Method: A fibroblast was obtained from a non-symptomatic at risk carrier of the pathogenic P301L mutation in the MAPT/Tau gene, a highly penetrant risk factor for frontotemporal dementia (FTD). NINDS line ID: ND32956, collected from a person. Fibroblasts were seeded into 96-well assay plates. After 24 hours, cells were pre-treated with either vehicle (DMSO) or a dose-response of Example 15 compound. After 6 hrs of pre-treatment, cells were challenged with the mitochondrial stressor FCCP for 14 hours. After 14 hours of challenge, cells were fixed in paraformaldehyde and a standard immunocytochemistry protocol was followed to stain for Miro1 using a specific antibody. Images were acquired on the Yokogawa CQ1 confocal high-content imaging platform and the signal from the Miro1 antibody was quantified. Average Miro1 signal intensity was quantified from ˜400 cells/condition.
Similar to the method illustrated in Example 64, a Miro1 ratio could be calculated based on the Miro1 level after treatment of fibroblasts with FCCP compared with a control Miro1 level measured from fibroblasts that were not treated.

[2] = biological target: Cav3.2 (Homo sapiens (Human), UniProt O95180); experiment: In vitro patch clamp assay (SyncroPatch 384PE); format: cell-based; conditions: HEK293 cells
Description: Patch clamp assays were performed at Charles River. HEK293 cells were cultured in Dulbecco's Modified Eagle Medium/Nutrient Mixture F-12 (D-MEM/F-12) supplemented with 10% fetal bovine serum, 100 U/mL penicillin G sodium, 100 μg/mL streptomycin sulfate and 500 μg/mL G418. Before testing, cells in culture dishes were washed twice with Hank's Balanced Salt Solution, treated with Accutase™ and re-suspended in the culture media (˜20×10^6 cells in 20 mL). Cells in suspension were allowed to recover for 10 minutes in tissue culture incubator set at 37° C. in a humidified 95% air: 5% CO2 atmosphere. Immediately before use in the SyncroPatch 384PE system (SP384PE), the cells were washed twice in extracellular buffer (HB-PS) to remove the culture medium and re-suspended in 20 mL of HB-PS. Extracellular buffer was loaded into the wells of Nanion 384-well Patch Clamp (NPC-384, 4×M) chip (60 μL per well). Then, cell suspension was pipetted into the wells (20 μL per well) of the chip. After establishment of the whole-cell configuration, membrane currents were recorded using patch clamp amplifier in the SP384PE system.

[3] = In vivo pharmacokinetics in dogs; conditions: dog, plasma; male beagle dogs, 1 mg/kg IV and 3 mg/kg PO; read-out: oral bioavailability (F)
Description: In vivo experiments were performed in dogs to evaluate certain calcium channel antagonists of the present disclosure. For instance, Example 15 was evaluated in adult male non-naïve beagle dogs (N=6), 8-10 kg, at 1 mg/kg IV and 3 mg/kg PO. The dogs were given free access to food and water for the IV group, were fasted overnight and fed 4 hr post-dosing for the PO group. The IV group was administered Example 15 via cephalic vein injection. The PO group was administered 3 mg/kg Example 15 by oral gavage. Dosing formulations were prepared at 1 mg/mL in 5% dimethylacetamide, 5% Solutol HS 15, 90% saline prior to use.
Blood collection: The animals were restrained manually, and approximately 0.5 mL blood/time point was collected via cephalic vein into pre-cold EDTA-K2 tubes. Blood samples were chilled on wet ice until centrifuged at 4° C. to obtain plasma within 15 minutes of sample collection.

[4] = Brain penetration in mice; format: in vivo; conditions: male C57BL/6 mice; for concentration at 4 h: mouse, brain, 4 hours post-dose
Description: Male C57BL/6 mice at 6-8 weeks were dosed once with Example 15 in two experiments (N=3 per timepoint) at 1 mg/kg IV or 10 mg/kg PO, and then compound concentration was measured at various times up to 24 hours. Dosing solutions were prepared of Example 15 in 0.2 mg/mL (IV) or 1 mg/mL (PO) in 5% dimethylacetamide, 5% Solutol HS 15, 90% saline solution prior to use. Compound was administered either IV by tail vein injection or PO by oral gavage.
Blood collection: The animal was restrained manually at the designated time points, approximately 110 μL of blood sample was collected via facial vein into K2EDTA tubes. Blood sample was put on ice and centrifuged at 2000 g for 5 mins to obtain plasma sample within 15 minutes.
Brain collection: After the blood collection, the animals were euthanized via CO2. The whole brain was collected, rinsed with cold saline, dried on filtrate paper, weighed, and snap frozen by placing into dry-ice.
The brain penetrance of Example 15 was calculated using mouse plasma/brain PK and relative mouse plasma and brain homogenate binding. […] For instance, at 4 hours post-dose: Example 15 brain concentration>100 ng/mL (IV); Example 15 brain concentration>1000 ng/mL (PO).

[5] = In vivo pharmacokinetics in rats; design: species or system Sprague-Dawley rats
Description: Fasted male Sprague-Dawley rats between 6 to 8 weeks of age were dosed with calcium channel antagonists of the present disclosure to evaluate in vivo pharmacokinetics. Each compound was formulated in 5% DMAC+5% Solutol HS15+90% Saline to yield a solution for dosing. The rats were dosed intravenously (IV) at 1 mg/kg (1 mL/kg) via foot dorsal vein (N=3) or orally (PO) at 10 mg/kg (10 mL/kg) via oral gavage (N=3).
Blood collection: The animals were restrained manually, and approximately 200 μL blood/time point was collected into pre-cooled EDTA-K2 tubes via jugular vein and put on wet ice. The blood sample was centrifuged at 4° C. (2000 g, 5 min) to obtain plasma within 15 min after sample collection. The plasma samples were stored at approximately −70° C. until analysis.

[6] = rat, compared to Example 16 of U.S. Pat. No. 7,875,636
[7] = rat, plasma, male Sprague-Dawley rats, 1 mg/kg IV, read-out: Mean (ng/mL) after 1 mg/kg IV dose
[8] = rat, plasma, male Sprague-Dawley rats, 10 mg/kg PO, read-out: Mean (ng/mL) after 10 mg/kg PO dose

Chain of Cav3.2 (O95180 whole entry): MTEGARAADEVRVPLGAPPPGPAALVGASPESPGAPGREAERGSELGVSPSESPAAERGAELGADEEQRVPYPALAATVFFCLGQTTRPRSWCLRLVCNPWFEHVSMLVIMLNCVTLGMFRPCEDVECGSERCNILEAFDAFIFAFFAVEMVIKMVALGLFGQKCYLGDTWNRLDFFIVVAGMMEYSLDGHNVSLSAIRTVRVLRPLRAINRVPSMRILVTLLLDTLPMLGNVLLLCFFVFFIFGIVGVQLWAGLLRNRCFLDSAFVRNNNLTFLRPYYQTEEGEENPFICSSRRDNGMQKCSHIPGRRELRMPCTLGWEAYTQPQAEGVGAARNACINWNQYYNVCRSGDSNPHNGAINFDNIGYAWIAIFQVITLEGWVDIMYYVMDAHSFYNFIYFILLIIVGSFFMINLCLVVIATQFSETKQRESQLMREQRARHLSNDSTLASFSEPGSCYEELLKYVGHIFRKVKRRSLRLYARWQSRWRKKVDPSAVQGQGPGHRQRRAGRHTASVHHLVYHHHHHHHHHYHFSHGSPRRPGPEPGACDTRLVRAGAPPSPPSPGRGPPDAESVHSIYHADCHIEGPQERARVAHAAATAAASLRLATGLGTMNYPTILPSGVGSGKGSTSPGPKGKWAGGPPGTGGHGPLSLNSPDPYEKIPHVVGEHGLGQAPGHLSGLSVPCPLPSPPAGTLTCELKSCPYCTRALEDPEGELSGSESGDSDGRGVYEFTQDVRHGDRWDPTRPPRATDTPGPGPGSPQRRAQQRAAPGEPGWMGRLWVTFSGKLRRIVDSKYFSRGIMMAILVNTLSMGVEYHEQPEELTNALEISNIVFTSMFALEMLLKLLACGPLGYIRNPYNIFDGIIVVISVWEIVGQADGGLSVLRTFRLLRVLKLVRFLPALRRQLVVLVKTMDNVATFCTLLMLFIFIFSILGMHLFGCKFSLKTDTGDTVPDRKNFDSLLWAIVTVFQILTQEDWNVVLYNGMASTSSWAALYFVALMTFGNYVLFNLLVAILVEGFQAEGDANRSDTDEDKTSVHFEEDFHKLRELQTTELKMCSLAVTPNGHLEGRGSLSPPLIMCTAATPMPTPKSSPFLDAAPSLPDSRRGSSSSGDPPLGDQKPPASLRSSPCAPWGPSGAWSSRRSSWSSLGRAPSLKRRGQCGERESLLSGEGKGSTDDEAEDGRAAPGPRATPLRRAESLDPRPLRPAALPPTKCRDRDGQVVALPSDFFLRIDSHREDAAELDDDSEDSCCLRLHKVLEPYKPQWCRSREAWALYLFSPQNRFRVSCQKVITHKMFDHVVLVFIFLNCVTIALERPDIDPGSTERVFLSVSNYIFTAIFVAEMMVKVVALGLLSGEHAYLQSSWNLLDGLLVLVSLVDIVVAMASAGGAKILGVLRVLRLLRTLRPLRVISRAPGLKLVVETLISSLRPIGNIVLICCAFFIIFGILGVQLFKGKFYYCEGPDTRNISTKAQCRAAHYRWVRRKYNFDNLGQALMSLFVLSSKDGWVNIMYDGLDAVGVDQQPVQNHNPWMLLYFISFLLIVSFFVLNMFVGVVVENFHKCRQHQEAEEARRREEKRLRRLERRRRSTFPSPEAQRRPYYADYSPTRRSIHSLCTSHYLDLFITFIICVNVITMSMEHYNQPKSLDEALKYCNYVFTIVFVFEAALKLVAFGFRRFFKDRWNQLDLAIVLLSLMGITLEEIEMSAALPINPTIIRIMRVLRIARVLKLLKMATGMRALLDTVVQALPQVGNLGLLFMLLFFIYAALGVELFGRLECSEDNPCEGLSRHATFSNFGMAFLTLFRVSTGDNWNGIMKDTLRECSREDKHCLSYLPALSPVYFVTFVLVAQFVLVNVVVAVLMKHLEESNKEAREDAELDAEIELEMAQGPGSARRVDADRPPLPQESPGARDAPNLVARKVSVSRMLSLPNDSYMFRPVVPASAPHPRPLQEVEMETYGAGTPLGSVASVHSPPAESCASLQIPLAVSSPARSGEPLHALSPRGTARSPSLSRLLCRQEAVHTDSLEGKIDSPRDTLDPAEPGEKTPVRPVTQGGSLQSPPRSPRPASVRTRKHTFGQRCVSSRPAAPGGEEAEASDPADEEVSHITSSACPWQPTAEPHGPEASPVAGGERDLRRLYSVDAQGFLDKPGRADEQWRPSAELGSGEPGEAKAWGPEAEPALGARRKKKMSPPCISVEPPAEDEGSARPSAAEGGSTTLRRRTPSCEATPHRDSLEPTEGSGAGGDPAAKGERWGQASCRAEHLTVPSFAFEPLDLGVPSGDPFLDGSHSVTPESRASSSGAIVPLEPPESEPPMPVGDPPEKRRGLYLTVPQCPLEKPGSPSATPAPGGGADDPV

In the case of `C[C@@H](NC(=O)Cc1ccc(C(F)(F)F)cc1)c1cc2cnn(CC(F)(F)F)c2cn1` [Example 15, (R)—N-(1-(1-(2,2,2-trifluoroethyl)-1H-pyrazolo[3,4-c]pyridin-5-yl)ethyl)-2-(4-(trifluoromethyl)phenyl)acetamide], the “rescue of Miro1 deficit” value ([1]; P301L tau donor fibroblasts in response to FCCP) is reported as “completely rescued Miro1 reduction deficit; also recorded: dose-dependent rescue of Miro1 deficit”, the IC50 ([1]; P301L tau donor fibroblasts, 6 hrs pre-treatment, FCCP 14 hours, read-out: IC50, rescue of Miro1 reduction deficit) is reported as 584 nM and the IC50 [2] is reported as 163 nM. For the same compound, the bioavailability [3] was greater than 50%, the brain penetration ([4]; IV and PO experiments) was “measurable brain penetration” and the concentration at 4 h ([4]; 1 mg/kg IV) was greater than 100 ng/mL. The concentration at 4 h ([4]; 10 mg/kg PO) was greater than 1000 ng/mL, the “Mean (ng/mL) after 1 mg/kg IV dose” value ([5]; male Sprague-Dawley rats, 1 mg/kg IV, 24 hr, BQL = below quantitation level) was “BQL” and the AUC [5, 6] was “higher”. For the same compound, the Cmax [5, 6] was “higher”, the “half-life (t1/2)” value [5, 6] was “about two-fold higher” and the concentration at 0.25 h [5, 7] was 890 ng/mL. It also gave a concentration at 0.5 h [5, 7] of 764 ng/mL, a concentration at 1 h [5, 7] of 621 ng/mL and a concentration at 2 h [5, 7] of 423 ng/mL. For the same compound, the concentration at 4 h [5, 7] was 193 ng/mL, the concentration at 8 h [5, 7] was 26.3 ng/mL and the concentration at 12 h [5, 7] was 4.42 ng/mL. It also gave a concentration at 0.25 h [5, 8] of 4110 ng/mL, a concentration at 0.5 h [5, 8] of 4510 ng/mL and a concentration at 1 h [5, 8] of 4710 ng/mL. The concentration at 2 h [5, 8] was 5440 ng/mL, the concentration at 4 h [5, 8] was 4070 ng/mL and the concentration at 8 h [5, 8] was 1240 ng/mL. It also gave a concentration at 12 h [5, 8] of 329 ng/mL and a concentration at 24 h ([5]; rat, plasma, male Sprague-Dawley rats, 10 mg/kg PO, 24 hr, read-out: Mean (ng/mL) after 10 mg/kg PO dose) of 2.49 ng/mL.
